Earlier results in paper PMC8583936, “Machine Learning Assisted Approach for Finding Novel High Activity Agonists of Human Ectopic Olfactory Receptors” (International Journal of Molecular Sciences, 2021).
Read-outs that look alike come from different tables or passages of the source.

How the values were obtained:
[1] = biological target: T1, OR1A1 (Homo sapiens, UniProt Q9P1Q5); conditions: cited from earlier work
T1 sequence (Q9P1Q5 1-309): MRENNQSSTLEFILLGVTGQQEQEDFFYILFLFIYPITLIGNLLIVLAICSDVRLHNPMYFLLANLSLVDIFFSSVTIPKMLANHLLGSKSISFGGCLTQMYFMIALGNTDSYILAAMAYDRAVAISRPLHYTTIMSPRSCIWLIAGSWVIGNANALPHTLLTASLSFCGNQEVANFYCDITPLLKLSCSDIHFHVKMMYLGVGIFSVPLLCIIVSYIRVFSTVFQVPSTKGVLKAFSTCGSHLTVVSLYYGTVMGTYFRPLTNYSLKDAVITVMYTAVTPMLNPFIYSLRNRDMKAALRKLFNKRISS

[2] = biological target: T2, OR2W1 (Homo sapiens, UniProt Q9Y3N9); conditions: cited from earlier work
T2 sequence (Q9Y3N9 1-320): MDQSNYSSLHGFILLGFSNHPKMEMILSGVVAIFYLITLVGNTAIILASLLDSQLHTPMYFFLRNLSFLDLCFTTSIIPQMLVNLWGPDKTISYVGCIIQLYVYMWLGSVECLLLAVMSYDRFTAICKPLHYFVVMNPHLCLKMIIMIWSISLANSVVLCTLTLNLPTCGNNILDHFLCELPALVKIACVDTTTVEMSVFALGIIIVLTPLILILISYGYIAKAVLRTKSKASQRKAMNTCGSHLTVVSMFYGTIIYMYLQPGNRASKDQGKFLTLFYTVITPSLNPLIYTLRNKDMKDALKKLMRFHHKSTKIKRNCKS

[3] = Table S1, ref Supplement references [1]-[9] as printed after each odorant name
[4] = Table S2, ref Supplement references [2]-[12] as printed after each odorant name

CCCCCCC/C=C/C=O [2-decenal, (2e)-]
Class (agonist / non-agonist / conflicting info.) for OR1A1 [1, 3]: Non-agonist | Class (agonist / non-agonist / antagonist / conflicting info.) for OR2W1 [2, 4]: Non-agonist

CCCCCC/C=C/C=O [2-enonenal]
Class (agonist / non-agonist / conflicting info.) for OR1A1 [1, 3]: Non-agonist | Class (agonist / non-agonist / antagonist / conflicting info.) for OR2W1 [2, 4]: Non-agonist

CCOc1nccs1 [2-ethoxythiazole]
Class (agonist / non-agonist / conflicting info.) for OR1A1 [1, 3]: Non-agonist | Class (agonist / non-agonist / antagonist / conflicting info.) for OR2W1 [2, 4]: Agonist

CCC1(O)C2(C)CCC(C2)C1(C)C (stereo not drawn) [2-ethylfenchol]
Class (agonist / non-agonist / conflicting info.) for OR1A1 [1, 3]: Conflicting info. | Class (agonist / non-agonist / antagonist / conflicting info.) for OR2W1 [2]: Conflicting info.

CCCCCC(C)O (stereo not drawn) [2-heptanol]
Class (agonist / non-agonist / conflicting info.) for OR1A1 [1, 3]: Non-agonist | Class (agonist / non-agonist / antagonist / conflicting info.) for OR2W1 [2, 4]: Agonist

CCCCCC(C)=O [2-heptanone]
Class (agonist / non-agonist / conflicting info.) for OR1A1 [1, 3]: Conflicting info. | Class (agonist / non-agonist / antagonist / conflicting info.) for OR2W1 [2, 4]: Conflicting info.

CCCCC(C)=O [2-hexanone]
Class (agonist / non-agonist / conflicting info.) for OR1A1 [1]: Non-agonist | Class (agonist / non-agonist / antagonist / conflicting info.) for OR2W1 [2]: Agonist

CCC/C=C/C=O [2-hexenal, (2e)-]
Class (agonist / non-agonist / conflicting info.) for OR1A1 [1, 3]: Non-agonist | Class (agonist / non-agonist / antagonist / conflicting info.) for OR2W1 [2, 4]: Non-agonist

COc1nccnc1CC(C)C [2-isobutyl-3-methoxypyrazine]
Class (agonist / non-agonist / conflicting info.) for OR1A1 [1, 3]: Non-agonist | Class (agonist / non-agonist / antagonist / conflicting info.) for OR2W1 [2, 4]: Non-agonist

COc1nccnc1C(C)C [2-isopropyl-3-methoxypyrazine]
Class (agonist / non-agonist / conflicting info.) for OR1A1 [1, 3]: Non-agonist | Class (agonist / non-agonist / antagonist / conflicting info.) for OR2W1 [2, 4]: Non-agonist

COc1cc(C)ccc1O [2-methoxy-4-methylphenol]
Class (agonist / non-agonist / conflicting info.) for OR1A1 [1, 3]: Non-agonist | Class (agonist / non-agonist / antagonist / conflicting info.) for OR2W1 [2, 4]: Non-agonist

CCCc1ccc(O)c(OC)c1 [2-methoxy-4-propylphenol]
Class (agonist / non-agonist / conflicting info.) for OR1A1 [1]: Non-agonist | Class (agonist / non-agonist / antagonist / conflicting info.) for OR2W1 [2]: Non-agonist

CCC(C)CO (stereo not drawn) [2-methyl-1-butanol]
Class (agonist / non-agonist / conflicting info.) for OR1A1 [1]: Non-agonist | Class (agonist / non-agonist / antagonist / conflicting info.) for OR2W1 [2]: Non-agonist

CCC(C)C=O (stereo not drawn) [2-methylbutyraldehyde]
Class (agonist / non-agonist / conflicting info.) for OR1A1 [1, 3]: Non-agonist | Class (agonist / non-agonist / antagonist / conflicting info.) for OR2W1 [2, 4]: Non-agonist

Cc1ccccc1O [2-methylphenol]
Class (agonist / non-agonist / conflicting info.) for OR1A1 [1]: Non-agonist | Class (agonist / non-agonist / antagonist / conflicting info.) for OR2W1 [2]: Non-agonist

CCCCCCCC(C)=O [2-nonanone]
Class (agonist / non-agonist / conflicting info.) for OR1A1 [1, 3]: Conflicting info. | Class (agonist / non-agonist / antagonist / conflicting info.) for OR2W1 [2, 4]: Agonist

CCCCCC/C=C\C=O [2-nonenal, (2z)-]
Class (agonist / non-agonist / conflicting info.) for OR1A1 [1, 3]: Non-agonist | Class (agonist / non-agonist / antagonist / conflicting info.) for OR2W1 [2, 4]: Non-agonist

CCCCCCC(C)=O [2-octanone]
Class (agonist / non-agonist / conflicting info.) for OR1A1 [1, 3]: Agonist | Class (agonist / non-agonist / antagonist / conflicting info.) for OR2W1 [2, 4]: Agonist

CCCCC/C=C\C=O [2-octenal, (2z)-]
Class (agonist / non-agonist / conflicting info.) for OR1A1 [1, 3]: Non-agonist | Class (agonist / non-agonist / antagonist / conflicting info.) for OR2W1 [2, 4]: Non-agonist

CCCC(C)=O [2-pentanone]
Class (agonist / non-agonist / conflicting info.) for OR1A1 [1, 3]: Non-agonist | Class (agonist / non-agonist / antagonist / conflicting info.) for OR2W1 [2, 4]: Non-agonist

CCCCCc1ccccn1 [2-pentylpyridine]
Class (agonist / non-agonist / conflicting info.) for OR1A1 [1, 3]: Agonist | Class (agonist / non-agonist / antagonist / conflicting info.) for OR2W1 [2, 4]: Agonist
